Experimental data as given in patent publication US6355799B1, “Substituted benzene compounds, process for their preparation, and herbicidal and defoliant compositions containing them” (ISK Americas Incorporated, priority 1997, dated 2002).

Columns and labels:
Type in all cases: in vivo
[1] = system: redroot pigweed (Amaranthus retroflexus, AMARE); test: Pre-emerge test, greenhouse herbicide activity screening; settings: rating scale 0-100, 14 days after application
Procedure, shortened: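 Plants grown in 10 cm pots of sandy loam mix received acetone-dissolved compounds through a moving flat-fan nozzle. Doses ranged from 15 to 1000 g ai/ha. Pre-emerge pots were seeded one day earlier, post-emerge pots 8–21 days earlier. Fourteen days on, each pot was graded 0–100 for damage.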

[2] = system: barnyardgrass (Echinochloa crus-galli, ECHCG); test: as above; settings: rating scale 0-100, 14 days after application
Procedure, shortened: (§1)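 Visual ratings on a 0-100 scale (0 no damage, 100 all plants dead) were taken at 14 days after treatment. Rates of 15-1000 g ai/ha in acetone, 187 l/ha, were sprayed onto soil one day after planting (pre-emerge) or onto 2-3 leaf plants with 0.25% v/v surfactant (post-emerge).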

[3] = system: green foxtail (Setaria viridis, SETVI); test: as above; settings: rating scale 0-100, 14 days after application
Procedure, shortened: as §1

[4] = system: ivyleaf morningglory (Ipomoea hederacea, IPOHE); test: as above; settings: rating scale 0-100, 14 days after application
Procedure, shortened: as §1

[5] = system: johnsongrass (Sorghum halepense, SORHA); test: as above; settings: rating scale 0-100, 14 days after application
Procedure, shortened: as §1

[6] = system: lambsquarters (Chenopodium album, CHEAL); test: as above; settings: rating scale 0-100, 14 days after application
Procedure, shortened: as §1

[7] = system: large crabgrass (Digitaria sanguinalis, DIGSA); test: as above; settings: rating scale 0-100, 14 days after application
Procedure, shortened: as §1

[8] = system: sicklepod (Cassia obtusifolia, CASOB); test: as above; settings: rating scale 0-100, 14 days after application
Procedure, shortened: as §1

[9] = system: velvetleaf (Abutilon theophrasti, ABUTH); test: as above; settings: rating scale 0-100, 14 days after application
Procedure, shortened: as §1

[10] = system: field corn (Zea mays L., var. Dekalb 535, CORN); test: Pre-emerge test, crop safety; settings: rating scale 0-100, 14 days after application
Procedure, shortened: (§2)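 Fourteen days after spraying, crop and weed injury was graded visually from 0, no effect, to 100, every plant dead. Test substances were dissolved in acetone and applied at 15–1000 g ai/ha with a flat-fan nozzle. Application was either pre-emergence, one day after sowing, or post-emergence at the 2–3 leaf stage.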

[11] = system: upland rice (Oryza sp., var. Tebonnet, RICE); test: Pre-emerge test, crop safety; settings: rating scale 0-100, 14 days after application
Procedure, shortened: as §2

[12] = system: barnyardgrass (Echinochloa crus-galli, ECHCG); test: Post-emerge test, greenhouse herbicide activity screening; settings: rating scale 0-100 (0 no damage, 100 complete death), 14 days after application
Procedure, shortened: (§3)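 Compounds in acetone were track-sprayed at 187 l/ha, 15–1000 g ai/ha, onto sandy loam pots. Pre-emerge seeds were sown one day before spraying, with surface watering afterwards. Post-emerge plants were at the 2–3 leaf stage and sprayed with 0.25% v/v non-ionic surfactant. Injury was rated 0–100 at 14 days.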

[13] = system: common ragweed (Ambrosia artemisizfolia L., AMBEL); test: as above; settings: rating scale 0-100 (0 no damage, 100 complete death), 14 days after application
Procedure, shortened: as §3

[14] = system: green foxtail (Setaria viridis, SETVI); test: as above; settings: rating scale 0-100 (0 no damage, 100 complete death), 14 days after application
Procedure, shortened: as §3

[15] = system: ivyleaf morningglory (Ipomoea hederacea, IPOHE); test: as above; settings: rating scale 0-100 (0 no damage, 100 complete death), 14 days after application
Procedure, shortened: as §3

[16] = system: johnsongrass (Sorghum halepense, SORHA); test: as above; settings: rating scale 0-100 (0 no damage, 100 complete death), 14 days after application
Procedure, shortened: as §3

[17] = system: lambsquarters (Chenopodium album, CHEAL); test: as above; settings: rating scale 0-100 (0 no damage, 100 complete death), 14 days after application
Procedure, shortened: as §3

[18] = system: large crabgrass (Digitaria sanguinalis, DIGSA); test: as above; settings: rating scale 0-100 (0 no damage, 100 complete death), 14 days after application
Procedure, shortened: as §3

[19] = system: redroot pigweed (Amaranthus retroflexus, AMARE); test: as above; settings: rating scale 0-100 (0 no damage, 100 complete death), 14 days after application
Procedure, shortened: as §3

[20] = system: sicklepod (Cassia obtusifolia, CASOB); test: as above; settings: rating scale 0-100 (0 no damage, 100 complete death), 14 days after application
Procedure, shortened: as §3

[21] = system: velvetleaf (Abutilon theophrasti, ABUTH); test: as above; settings: rating scale 0-100 (0 no damage, 100 complete death), 14 days after application
Procedure, shortened: as §3

[22] = system: field corn (Zea mays L., var. Dekalb 535, CORN); test: Post-emerge test, crop safety; settings: rating scale 0-100 (0 no damage, 100 complete death), 14 days after application
Procedure, shortened: as §1

[23] = system: upland rice (Oryza sp., var. Tebonnet, RICE); test: Post-emerge test, crop safety; settings: rating scale 0-100 (0 no damage, 100 complete death), 14 days after application
Procedure, shortened: as §1

COc1c(Cl)cc(F)c(-n2c(=O)cc(C(F)(F)F)n(C)c2=O)c1CC(Cl)C(=O)OCC(C)C (single isomer, unassigned) [14-15]
95: Pre-emerge herbicidal activity, phytotoxicity rating CHEAL ([6]; 250 g ai/ha) | Post-emerge Herbicidal Activity, phytotoxicity rating DIGSA ([18]; Rate 63 g ai/ha)
60: Post-emerge Herbicidal Activity, phytotoxicity rating ABUTH ([21]; Rate 63 g ai/ha) | Post-emerge phytotoxicity rating CORN (crop damage) ([22]; Rate 250 g ai/ha)
50: Pre-emerge herbicidal activity, phytotoxicity rating ABUTH ([9]; 63 g ai/ha) | Post-emerge Herbicidal Activity, phytotoxicity rating IPOHE ([15]; Rate 63 g ai/ha) | Post-emerge Herbicidal Activity, phytotoxicity rating SORHA ([16]; Rate 63 g ai/ha) | Post-emerge Herbicidal Activity, phytotoxicity rating CHEAL ([17]; Rate 63 g ai/ha) | Post-emerge Herbicidal Activity, phytotoxicity rating CASOB ([20]; Rate 250 g ai/ha)
70: Pre-emerge herbicidal activity, phytotoxicity rating DIGSA ([7]; 63 g ai/ha) | Post-emerge Herbicidal Activity, phytotoxicity rating SETVI ([14]; Rate 63 g ai/ha)
0: Pre-emerge herbicidal activity, phytotoxicity rating ECHCG ([2]; 63 g ai/ha) | Pre-emerge herbicidal activity, phytotoxicity rating SETVI ([3]; 63 g ai/ha) | Pre-emerge herbicidal activity, phytotoxicity rating IPOHE ([4]; 63 g ai/ha) | Pre-emerge herbicidal activity, phytotoxicity rating SORHA ([5]; 63 g ai/ha) | Pre-emerge herbicidal activity, phytotoxicity rating SORHA ([5]; 250 g ai/ha) | Pre-emerge herbicidal activity, phytotoxicity rating CASOB ([8]; 63 g ai/ha) | Pre-emerge phytotoxicity rating, crop damage CORN ([10]; 63 g ai/ha) | Pre-emerge phytotoxicity rating, crop damage CORN ([10]; 250 g ai/ha) | Pre-emerge phytotoxicity rating, crop damage RICE ([11]; 63 g ai/ha) | Pre-emerge phytotoxicity rating, crop damage RICE ([11]; 250 g ai/ha) | Post-emerge Herbicidal Activity, phytotoxicity rating CASOB ([20]; Rate 63 g ai/ha) | Post-emerge phytotoxicity rating RICE (crop damage) ([23]; Rate 63 g ai/ha) | Post-emerge phytotoxicity rating RICE (crop damage) ([23]; Rate 250 g ai/ha)
40: Pre-emerge herbicidal activity, phytotoxicity rating CASOB ([8]; 250 g ai/ha) | Post-emerge Herbicidal Activity, phytotoxicity rating SORHA ([16]; Rate 250 g ai/ha)
80: Pre-emerge herbicidal activity, phytotoxicity rating ECHCG ([2]; 250 g ai/ha) | Post-emerge Herbicidal Activity, phytotoxicity rating SETVI ([14]; Rate 250 g ai/ha)
90: Post-emerge Herbicidal Activity, phytotoxicity rating IPOHE ([15]; Rate 250 g ai/ha) | Post-emerge Herbicidal Activity, phytotoxicity rating ABUTH ([21]; Rate 250 g ai/ha)
100: Pre-emerge herbicidal activity, phytotoxicity rating AMARE ([1]; 63 g ai/ha) | Pre-emerge herbicidal activity, phytotoxicity rating AMARE ([1]; 250 g ai/ha) | Pre-emerge herbicidal activity, phytotoxicity rating DIGSA ([7]; 250 g ai/ha) | Pre-emerge herbicidal activity, phytotoxicity rating ABUTH ([9]; 250 g ai/ha) | Post-emerge Herbicidal Activity, phytotoxicity rating ECHCG ([12]; Rate 63 g ai/ha) | Post-emerge Herbicidal Activity, phytotoxicity rating ECHCG ([12]; Rate 250 g ai/ha) | Post-emerge Herbicidal Activity, phytotoxicity rating AMBEL ([13]; Rate 250 g ai/ha) | Post-emerge Herbicidal Activity, phytotoxicity rating CHEAL ([17]; Rate 250 g ai/ha) | Post-emerge Herbicidal Activity, phytotoxicity rating DIGSA ([18]; Rate 250 g ai/ha) | Post-emerge Herbicidal Activity, phytotoxicity rating AMARE ([19]; Rate 63 g ai/ha) | Post-emerge Herbicidal Activity, phytotoxicity rating AMARE ([19]; Rate 250 g ai/ha)
20: Pre-emerge herbicidal activity, phytotoxicity rating IPOHE ([4]; 250 g ai/ha) | Pre-emerge herbicidal activity, phytotoxicity rating CHEAL ([6]; 63 g ai/ha) | Post-emerge Herbicidal Activity, phytotoxicity rating AMBEL ([13]; Rate 63 g ai/ha) | Post-emerge phytotoxicity rating CORN (crop damage) ([22]; Rate 63 g ai/ha)
30: Pre-emerge herbicidal activity, phytotoxicity rating SETVI ([3]; 250 g ai/ha)

COc1c(Cl)cc(F)c(-n2c(=O)cc(C(F)(F)F)n(C)c2=O)c1CC(Cl)C(=O)OCC(F)(F)C(F)(F)C(F)(F)F (single isomer, unassigned) [14-23]
60: Post-emerge Herbicidal Activity, phytotoxicity rating SETVI ([14]; Rate 63 g ai/ha)
0: Pre-emerge herbicidal activity, phytotoxicity rating SETVI ([3]; 63 g ai/ha) | Pre-emerge herbicidal activity, phytotoxicity rating IPOHE ([4]; 63 g ai/ha) | Pre-emerge herbicidal activity, phytotoxicity rating SORHA ([5]; 63 g ai/ha) | Pre-emerge herbicidal activity, phytotoxicity rating CHEAL ([6]; 63 g ai/ha) | Pre-emerge herbicidal activity, phytotoxicity rating CASOB ([8]; 63 g ai/ha) | Pre-emerge herbicidal activity, phytotoxicity rating CASOB ([8]; 250 g ai/ha) | Pre-emerge herbicidal activity, phytotoxicity rating ABUTH ([9]; 63 g ai/ha) | Pre-emerge phytotoxicity rating, crop damage CORN ([10]; 63 g ai/ha) | Pre-emerge phytotoxicity rating, crop damage CORN ([10]; 250 g ai/ha) | Pre-emerge phytotoxicity rating, crop damage RICE ([11]; 63 g ai/ha) | Pre-emerge phytotoxicity rating, crop damage RICE ([11]; 250 g ai/ha) | Post-emerge phytotoxicity rating CORN (crop damage) ([22]; Rate 63 g ai/ha) | Post-emerge phytotoxicity rating RICE (crop damage) ([23]; Rate 63 g ai/ha)
80: Pre-emerge herbicidal activity, phytotoxicity rating SORHA ([5]; 250 g ai/ha) | Pre-emerge herbicidal activity, phytotoxicity rating ABUTH ([9]; 250 g ai/ha) | Post-emerge Herbicidal Activity, phytotoxicity rating IPOHE ([15]; Rate 63 g ai/ha) | Post-emerge Herbicidal Activity, phytotoxicity rating CHEAL ([17]; Rate 250 g ai/ha)
50: Post-emerge Herbicidal Activity, phytotoxicity rating AMBEL ([13]; Rate 63 g ai/ha) | Post-emerge Herbicidal Activity, phytotoxicity rating SORHA ([16]; Rate 250 g ai/ha) | Post-emerge Herbicidal Activity, phytotoxicity rating CHEAL ([17]; Rate 63 g ai/ha) | Post-emerge Herbicidal Activity, phytotoxicity rating DIGSA ([18]; Rate 63 g ai/ha) | Post-emerge Herbicidal Activity, phytotoxicity rating AMARE ([19]; Rate 63 g ai/ha) | Post-emerge Herbicidal Activity, phytotoxicity rating ABUTH ([21]; Rate 63 g ai/ha)
30: Pre-emerge herbicidal activity, phytotoxicity rating ECHCG ([2]; 250 g ai/ha) | Pre-emerge herbicidal activity, phytotoxicity rating IPOHE ([4]; 250 g ai/ha) | Pre-emerge herbicidal activity, phytotoxicity rating DIGSA ([7]; 63 g ai/ha)
100: Pre-emerge herbicidal activity, phytotoxicity rating AMARE ([1]; 250 g ai/ha) | Post-emerge Herbicidal Activity, phytotoxicity rating ECHCG ([12]; Rate 63 g ai/ha) | Post-emerge Herbicidal Activity, phytotoxicity rating ECHCG ([12]; Rate 250 g ai/ha) | Post-emerge Herbicidal Activity, phytotoxicity rating AMARE ([19]; Rate 250 g ai/ha)
20: Post-emerge Herbicidal Activity, phytotoxicity rating CASOB ([20]; Rate 63 g ai/ha) | Post-emerge phytotoxicity rating RICE (crop damage) ([23]; Rate 250 g ai/ha)
90: Pre-emerge herbicidal activity, phytotoxicity rating CHEAL ([6]; 250 g ai/ha) | Pre-emerge herbicidal activity, phytotoxicity rating DIGSA ([7]; 250 g ai/ha) | Post-emerge Herbicidal Activity, phytotoxicity rating ABUTH ([21]; Rate 250 g ai/ha)
95: Pre-emerge herbicidal activity, phytotoxicity rating AMARE ([1]; 63 g ai/ha) | Post-emerge Herbicidal Activity, phytotoxicity rating IPOHE ([15]; Rate 250 g ai/ha) | Post-emerge Herbicidal Activity, phytotoxicity rating DIGSA ([18]; Rate 250 g ai/ha)
10: Pre-emerge herbicidal activity, phytotoxicity rating ECHCG ([2]; 63 g ai/ha)
40: Pre-emerge herbicidal activity, phytotoxicity rating SETVI ([3]; 250 g ai/ha) | Post-emerge Herbicidal Activity, phytotoxicity rating AMBEL ([13]; Rate 250 g ai/ha) | Post-emerge Herbicidal Activity, phytotoxicity rating SORHA ([16]; Rate 63 g ai/ha) | Post-emerge phytotoxicity rating CORN (crop damage) ([22]; Rate 250 g ai/ha)
70: Post-emerge Herbicidal Activity, phytotoxicity rating SETVI ([14]; Rate 250 g ai/ha) | Post-emerge Herbicidal Activity, phytotoxicity rating CASOB ([20]; Rate 250 g ai/ha)
